# Experiments:
# [1] = tested on: DU145 androgen-independent prostate carcinoma cells; assay: Amino acid uptake and inhibition in DU145 cells; assay type: cell-based, human; details: DU145, 30 minutes incubation
# [2] = tested on: SKOV3 estrogen-positive ovarian adenocarcinoma cells; assay: Amino acid uptake and inhibition in SKOV3 cells; assay type: cell-based, human; details: SKOV3, 30 minutes incubation
# A549 tumor xenograft = assay: Biodistribution in A549 tumor-bearing SCID mice; assay type: in vivo; details: listed as (S)-[^18F]FAMP 1
# DU145 tumor xenograft = assay: Biodistribution in DU145 tumor-bearing SCID mice; assay type: in vivo; details: listed as (S)-[^18F]FAMP 1
# [3] = tested on: human A549, DU145, U87, MDA MB468 and SKOV3 tumor cells; assay: Amino acid uptake and inhibition, summary over the five tumor cell lines; assay type: cell-based
smiles,measurement,setting,value
CC(N)(C[18F])C(=O)O [(S)-[^18F]1] [2-amino-3-[^18F]fluoro-2-methylpropanoic acid],Cell uptake,[1]; 10 mM BCH,1.6±0.1 % ID/5×10^5 cells
same,Cell uptake,[1]; 10 mM MeAIB,3.2±0.4 % ID/5×10^5 cells
same,Cell uptake,[1]; Control (no inhibitor),3.6±0.3 % ID/5×10^5 cells
same,Cell uptake,[2]; 10 mM BCH,1.7±0.1 % ID/5×10^5 cells
same,Cell uptake,[2]; 10 mM MeAIB,2.9±0.2 % ID/5×10^5 cells
same,Cell uptake,[2]; Control (no inhibitor),3.9±0.2 % ID/5×10^5 cells
same,uptake in blood,A549 tumor xenograft; 15 min post injection,3.9±0.6 %ID/g
same,uptake in bone,A549 tumor xenograft; 15 min post injection,2.6±0.8 %ID/g
same,uptake in brain,A549 tumor xenograft; 15 min post injection,0.5±0.1 %ID/g
same,uptake in heart,A549 tumor xenograft; 15 min post injection,3.2±0.7 %ID/g
same,uptake in kidney,A549 tumor xenograft; 15 min post injection,29±5.7 %ID/g
same,uptake in liver,A549 tumor xenograft; 15 min post injection,3.7±0.5 %ID/g
same,uptake in lung,A549 tumor xenograft; 15 min post injection,5.5±2.0 %ID/g
same,uptake in muscle,A549 tumor xenograft; 15 min post injection,3.3±0.7 %ID/g
same,uptake in pancreas,A549 tumor xenograft; 15 min post injection,42±8.4 %ID/g
same,uptake in spleen,A549 tumor xenograft; 15 min post injection,9.0±3.0 %ID/g
same,uptake in tumor,A549 tumor xenograft; 15 min post injection,6.7±1.7 %ID/g
same,uptake in blood,A549 tumor xenograft; 30 min post injection,3.1±0.6 %ID/g
same,uptake in bone,A549 tumor xenograft; 30 min post injection,2.5±0.6 %ID/g
same,uptake in brain,A549 tumor xenograft; 30 min post injection,0.6±0.1 %ID/g
same,uptake in heart,A549 tumor xenograft; 30 min post injection,3.3±0.4 %ID/g
same,uptake in kidney,A549 tumor xenograft; 30 min post injection,21±6.9 %ID/g
same,uptake in liver,A549 tumor xenograft; 30 min post injection,3.8±0.6 %ID/g
same,uptake in lung,A549 tumor xenograft; 30 min post injection,4.3±1.7 %ID/g
same,uptake in muscle,A549 tumor xenograft; 30 min post injection,3.0±0.8 %ID/g
same,uptake in pancreas,A549 tumor xenograft; 30 min post injection,39±8.2 %ID/g
same,uptake in spleen,A549 tumor xenograft; 30 min post injection,8.4±1.7 %ID/g
same,uptake in tumor,A549 tumor xenograft; 30 min post injection,7.9±1.0 %ID/g
same,uptake in blood,A549 tumor xenograft; 60 min post injection,2.3±0.1 %ID/g
same,uptake in bone,A549 tumor xenograft; 60 min post injection,2.7±0.6 %ID/g
same,uptake in brain,A549 tumor xenograft; 60 min post injection,0.8±0.1 %ID/g
same,uptake in heart,A549 tumor xenograft; 60 min post injection,3.0±0.4 %ID/g
same,uptake in kidney,A549 tumor xenograft; 60 min post injection,17±1.4 %ID/g
same,uptake in liver,A549 tumor xenograft; 60 min post injection,3.5±0.4 %ID/g
same,uptake in lung,A549 tumor xenograft; 60 min post injection,2.8±1.3 %ID/g
same,uptake in muscle,A549 tumor xenograft; 60 min post injection,2.9±0.6 %ID/g
same,uptake in pancreas,A549 tumor xenograft; 60 min post injection,33±6.1 %ID/g
same,uptake in spleen,A549 tumor xenograft; 60 min post injection,6.5±1.1 %ID/g
same,uptake in tumor,A549 tumor xenograft; 60 min post injection,8.3±1.0 %ID/g
same,uptake in blood,A549 tumor xenograft; 120 min post injection,2.0±0.4 %ID/g
same,uptake in bone,A549 tumor xenograft; 120 min post injection,2.0±0.5 %ID/g
same,uptake in brain,A549 tumor xenograft; 120 min post injection,0.8±0.1 %ID/g
same,uptake in heart,A549 tumor xenograft; 120 min post injection,2.7±0.8 %ID/g
same,uptake in kidney,A549 tumor xenograft; 120 min post injection,14±1.8 %ID/g
same,uptake in liver,A549 tumor xenograft; 120 min post injection,2.8±0.4 %ID/g
same,uptake in lung,A549 tumor xenograft; 120 min post injection,3.1±0.9 %ID/g
same,uptake in muscle,A549 tumor xenograft; 120 min post injection,2.3±0.4 %ID/g
same,uptake in pancreas,A549 tumor xenograft; 120 min post injection,29±2.3 %ID/g
same,uptake in spleen,A549 tumor xenograft; 120 min post injection,6.0±1.7 %ID/g
same,uptake in tumor,A549 tumor xenograft; 120 min post injection,6.5±0.8 %ID/g
same,uptake in blood,DU145 tumor xenograft; 15 min post injection,5.1±1.1 %ID/g
same,uptake in bone,DU145 tumor xenograft; 15 min post injection,2.4±1.1 %ID/g
same,uptake in brain,DU145 tumor xenograft; 15 min post injection,0.6±0.1 %ID/g
same,uptake in heart,DU145 tumor xenograft; 15 min post injection,3.2±1.2 %ID/g
same,uptake in kidney,DU145 tumor xenograft; 15 min post injection,36±5.1 %ID/g
same,uptake in liver,DU145 tumor xenograft; 15 min post injection,3.4±0.6 %ID/g
same,uptake in lung,DU145 tumor xenograft; 15 min post injection,6.5±1.5 %ID/g
same,uptake in muscle,DU145 tumor xenograft; 15 min post injection,4.0±0.8 %ID/g
same,uptake in pancreas,DU145 tumor xenograft; 15 min post injection,55±8.8 %ID/g
same,uptake in spleen,DU145 tumor xenograft; 15 min post injection,7.9±2.3 %ID/g
same,uptake in tumor,DU145 tumor xenograft; 15 min post injection,3.2±2.5 %ID/g
same,uptake in blood,DU145 tumor xenograft; 30 min post injection,2.9±1.1 %ID/g
same,uptake in bone,DU145 tumor xenograft; 30 min post injection,2.2±0.5 %ID/g
same,uptake in brain,DU145 tumor xenograft; 30 min post injection,0.5±0.2 %ID/g
same,uptake in heart,DU145 tumor xenograft; 30 min post injection,3.2±1.3 %ID/g
same,uptake in kidney,DU145 tumor xenograft; 30 min post injection,21±6.2 %ID/g
same,uptake in liver,DU145 tumor xenograft; 30 min post injection,2.9±0.9 %ID/g
same,uptake in lung,DU145 tumor xenograft; 30 min post injection,5.0±2.6 %ID/g
same,uptake in muscle,DU145 tumor xenograft; 30 min post injection,2.9±0.2 %ID/g
same,uptake in pancreas,DU145 tumor xenograft; 30 min post injection,37±13 %ID/g
same,uptake in spleen,DU145 tumor xenograft; 30 min post injection,6.6±1.1 %ID/g
same,uptake in tumor,DU145 tumor xenograft; 30 min post injection,1.8±0.4 %ID/g
same,uptake in blood,DU145 tumor xenograft; 60 min post injection,2.4±0.04 %ID/g
same,uptake in bone,DU145 tumor xenograft; 60 min post injection,2.1±0.2 %ID/g
same,uptake in brain,DU145 tumor xenograft; 60 min post injection,0.6±0.1 %ID/g
same,uptake in heart,DU145 tumor xenograft; 60 min post injection,3.5±0.3 %ID/g
same,uptake in kidney,DU145 tumor xenograft; 60 min post injection,17±0.6 %ID/g
same,uptake in liver,DU145 tumor xenograft; 60 min post injection,3.3±0.5 %ID/g
same,uptake in lung,DU145 tumor xenograft; 60 min post injection,3.4±0.8 %ID/g
same,uptake in muscle,DU145 tumor xenograft; 60 min post injection,2.5±0.3 %ID/g
same,uptake in pancreas,DU145 tumor xenograft; 60 min post injection,36±3.1 %ID/g
same,uptake in spleen,DU145 tumor xenograft; 60 min post injection,9.2±5.1 %ID/g
same,uptake in tumor,DU145 tumor xenograft; 60 min post injection,3.4±1.7 %ID/g
same,uptake in blood,DU145 tumor xenograft; 120 min post injection,1.8±0.4 %ID/g
same,uptake in bone,DU145 tumor xenograft; 120 min post injection,1.6±0.4 %ID/g
same,uptake in brain,DU145 tumor xenograft; 120 min post injection,0.6±0.1 %ID/g
same,uptake in heart,DU145 tumor xenograft; 120 min post injection,3.0±0.7 %ID/g
same,uptake in kidney,DU145 tumor xenograft; 120 min post injection,13±1.7 %ID/g
same,uptake in liver,DU145 tumor xenograft; 120 min post injection,2.8±0.7 %ID/g
same,uptake in lung,DU145 tumor xenograft; 120 min post injection,3.3±1.1 %ID/g
same,uptake in muscle,DU145 tumor xenograft; 120 min post injection,1.7±0.5 %ID/g
same,uptake in pancreas,DU145 tumor xenograft; 120 min post injection,28±7.4 %ID/g
same,uptake in spleen,DU145 tumor xenograft; 120 min post injection,5.3±1.8 %ID/g
same,uptake in tumor,DU145 tumor xenograft; 120 min post injection,3.5±0.7 %ID/g
same,inhibition of uptake by BCH,"[3]; 10 mM BCH, relative to control, most cell lines",36-68%
same,inhibition of uptake by MeAIB,"[3]; 10 mM MeAIB, relative to control, most cell lines",10-32%
same,uptake in tumor cells,"[3]; 30 minutes incubation, without inhibitors, range over the cell lines",2-5 %ID/5×10^5 cells
same,amino acid transport system mediating uptake / selectivity,[3]; AAT cell inhibition assays with MeAIB and BCH,"mixed AATs, likely but not limited to system A and system L"

# Reference: article PMC4268243 (Nuclear medicine and biology, 2014)
